Consider eight compounds from patent US20100034839A1, “METHODS FOR TREATING VIRAL DISORDERS” (priority 2008, published 2010).

No end group written: not given here. *: point of attachment. Biotin = O=C1N[C@H]2[C@H](CS[C@H]2CCCCC(=O)*)N1

The test system of one experiment is mouse splenic B cells. Nature of the experiment: TLR activation of mouse splenic B cells: ectopic CLIP in MHC class II. Particulars: for exogenous CLIP expression on activated mouse B cells: treatment in vitro with Toll ligand, FIG. 12d. The class given is cell-based. On the procedure:
FIG. 12 depicts TLR activation of mouse splenic B cells results in ectopic CLIP in MHC class II. FIG. 12a: LPS activation of spleen cells from B6.129 mice (H-2b). B cells are detected by staining with PE conjugated anti-mouse B220, shown on Y-axis, versus staining with 15G4-FITC anti-mouse CLIP/I-Ab, as shown on the X-axis. A representative of four experiments at unique time points, 0 to 72 hours by 24-hour increments, left to right, is shown. FIG. 12b (linear representation from FIG. 12a): changes in percentages of CLIP+ B cells, left Y-axis, and quantitative depiction of increasing mean fluorescence intensity of CLIP/I-Ab staining, right Y-axis. FIG. 12c: antigen receptor engagement increases cell surface MHC class II but not ectopic CLIP. B6.129 splenocytes, untreated or treated in vitro with anti-immunoglobulin (as a surrogate for antigen) or CpG-ODN were stained with anti-mouse B220-PE versus 15G4-FITC anti-mouse CLIP/I-Ab (bars, left Y-axis) or with anti-mouse B220-PE versus anti-mouse MHC class II-FITC (I-Ab) (line graph, right Y-axis). FIG. 12d: toll ligands 9, 10 used to activate cells, listed from top down, Poly I:C, Pam3Cys, R848, LPS, CpG-ODN, and no treatment, as indicated. Shown are percentages of CLIP+ B cells in splenocytes stimulated […] from B6.129 mice, left panel; H2M-deficient mice, middle panel; Ii-deficient mice, right panel.
Total splenocytes, from either B6.129, Ii-deficient, or H2M-deficient mice were cultured with LPS for 24, 48, 72, or 96 hours as indicated. Cells were harvested and stained by two-color fluorescence using 15G4-FITC anti-mouse CLIP/I-A^b versus anti-mouse B220 PE.
Freshly isolated splenocytes, single cell suspensions of lymph node cells, resting (or activated) B cells, or primed B cells were isolated from B6.129, Ii-deficient, or H2M-deficient mice and cultured in 24 well plates in complete RPMI medium, with or without the appropriate Toll ligand, at 10^6 cells/ml. Cells were cultured for 24, 48, 72, 96, or up to 144 hours. Cells were harvested and stained by flow cytometric analysis using either a Beckman Coulter Excel or a Beckman Coulter FC500 flow cytometer. Cells were stained by two-color fluorescence using 15G4-FITC anti-mouse CLIP/I-A^b versus anti-mouse B220 PE. For co-culture experiments (5×10^5) were combined with T cells (5×10^4) in 24 well plates in complete medium, with or without the appropriate antigen. Experiments with 3A9, 2A11 or A6.A2 employed 3 mg/ml tryptic digest of HEL as a source of pre-processed antigen, i.e., peptide. Cultures were incubated overnight at […] in a humidified 5% CO2, 95% air incubator.
Multi-parameter flow cytometric analysis for the fluorescent detection of ectopic CLIP, mouse B220, human CD19 or CD20, human CLIP, human HLA-DR, and human CLIP or apoptosis were performed using a Beckman Coulter Excel or a Beckman Coulter FC500 flow cytometer (Beckman Coulter, Hialeah, Fla.). Mouse splenic cells were cultured in complete RPMI for the times indicated. Resting, primed, or activated B cells were cultured in the presence of T cells (vide supra). At the end of 16 h of culture, the cells were harvested and washed. Ethidium bromide (detected by red fluorescence) was added immediately before analysis of each tube. The cells were analyzed by first gating using forward vs. side scatter then using increased fluorescence as a measure of detection of the indicated cell surface antigens.

The test system of experiment [1] is human B cells from peripheral blood mononuclear cells (PBMC). Description: TLR activation of human B cells in PBMC cultures: ectopic CLIP. It counts as cell-based. Particulars: PBMC from five healthy donors, 24 hours, 5 μg per ml. On the procedure:
(§1) FIG. 13 depicts TLR activation results in ectopic CLIP expression on human B cells from peripheral blood mononuclear cells (PBMC) cultures. FIG. 13a: human PBMC from five donors were cultured for 24 hours with toll ligands (CpG-ODN, LPS, Pam3Cys, and Poly I:C) and were stained with a pan anti-HLA-DR-FITC antibody (values of isotype controls were subtracted from the specific stains, ΔMFI). FIG. 13b: cells were stained using anti-human CLIP-FITC versus CD19-PE (values of isotype controls were subtracted from the specific stains, ΔMFI). For FIGS. 13a & 13b: nil vs. CpG p=0.06821; nil vs. LPS p=0.0390; nil vs. PAM p=0.0124. FIG. 13c: cells were stained for CLIP-FITC versus CD19-PE as described for FIG. 13b. The data represent the percent of total PBMC that are CLIP+ B cells subsequent to treatment. For FIG. 13c: nil vs. CpG p=0.0058; nil vs. LPS p=0.0254. […]
(§2) PBMC were prepared from a total of seven adult normal donors, five for examining the effects of TLR binding on the percentage of ectopic CLIP^+ B cells and changes in mean fluorescence intensity of the CLIP staining resulting from TLR stimulation with CpG-ODN, LPS, Pam-3-Cys, and Poly I:C. […] Cells were analyzed using either a BD FacsCalibur, for the five samples, or a Coulter FC500 for the two tissue typed samples. […]

For experiment [2], the system named is CLIP^+ B cells in human PBMC. Nature of the experiment: Peptide replacement of CLIP on R848-activated human PBMC B cells. It counts as cell-based. Particulars: PBMC of two donors cultured with R848 for 48 hours with peptide. On the procedure:
as §1, §2

In the next experiment the test system is Raji or Daudi cells. Description: Cell surface CLIP and CD74 levels after MKN1 (bioCLIP). It counts as cell-based, human. The procedure:
The ability of MKN1 (bioCLIP) to alter cell surface CLIP and CD74 levels was also determined using Raji or Daudi cells.

In another experiment the test system is B cell surface CLIP. Nature of the experiment: B cell surface CLIP after 2-Deoxyglucose and dichloroacetate (FIG. 4). It counts as cell-based.
Experiment [3] concerns cell surface CLIP on Raji and Daudi cells. Nature of the experiment: Competition of synthetic peptides with cell surface CLIP (Fitc anti-human CLIP). The class given is cell-based. Conditions: biotinylated competing peptide. The text has this:
Based on a computational model comparing the peptide content of TNP mixture and identifying those peptides that would have the likeliest ability to compete for the peptide/antigen binding site for MHC class II (human HLA-DR, DP, and DQ), several peptide candidates were synthesized and examined for activity. The purpose of the study was to determine if synthetic peptides can compete for binding with CLIP peptides as measured with either Fitc anti-human CLIP antibody or, comparatively in the case of biotinylated peptides, with Streptavidin.
Cell Culture Conditions: The Raji and Daudi cell lines were purchased from American Type Culture Collection, were thawed, and grown in RPMI 1640 medium supplemented with standard supplements, including 10% fetal calf serum, gentamycin, penicillin, streptomycin, sodium pyruvate, HEPES buffer, 1-glutamine, and 2-ME.
Protocol: Cells were plated into a 12 well plate with 3 mls total volume containing approximately 1.5×10^6/well for Daudi cells and 3.0×10^6/well for Raji cells. Treatment groups included no treatment as control; MKN 3 and MKN 5 at 50 microMolar final concentration based on the reported molarity of the synthesized compounds.
The cells were incubated at 37° C. in an atmosphere containing 5% CO2 and approximately 92% humidity. The cells were incubated for 4 and 24 hours. At each time point, the cells from that experimental time were harvested and stained for flow cytometric analysis of cell surface expression of CLIP (MHC Class II invariant peptide, human) by using the commercially available (Becton/Dickinson/PHarmingen) anti-human CLIP Fitc. Catalogue #555981 versus Streptavidin.
Harvested cells were stained using standard staining procedure that called for a 1:100 dilution of Fitc-anti-human CLIP or isotype control versus 1:200 dilution of the commercially prepared Streptavidin. Following staining on ice for 25 minutes, cells were washed with PBS/FCS and resuspended in 100 microliters and added to staining tubes containing 400 microliters of PBS. Samples were acquired and analyzed on a Coulter Excel Flow Cytometer.
In the Histogram analyses of FIGS. 5-7 the Y axis represents cell number of the 5000 live cells versus the X axis which is a reflection of relative Fitc fluorescence versus Streptavidin-PE (eBioscience, Cat. #12-4317) that will bind with high affinity to cell-bound biotinylated peptides. The distance between the histogram from the isotype control staining versus the histogram reflecting the specific stain and is a measure of level of cell surface CLIP or the biotinylated peptide when stained with Streptavidin on a population of live Raji or Daudi cells as indicated.

As for “(S)-(2,3-bis(palmitoyloxy)-(2RS)-propyl)-N-palmitoyl-(R)-Cys-(S)-Ser(S)-Lys4-OH, trihydrochloride [Pam3Cys]”, in the experiment on mouse splenic B cells, the “exogenous CLIP expression on activated mouse B cells” value (“exogenous CLIP expression” for short) was “resulted in exogenous CLIP expression on the activated mouse B cells”.
Take lipopolysaccharide [LPS]: the “exogenous CLIP associated with MHC class II on splenic B cells” value with mouse splenic B cells (in vitro stimulation of resting mouse splenocytes, 0 to 72 hours) was “time-dependent increase in exogenous CLIP associated with MHC class II”. Also, in the experiment on mouse splenic B cells, the “exogenous CLIP expression” value is “resulted in exogenous CLIP expression on the activated mouse B cells”. Also, in experiment [1], the “ectopic CLIP on human B cells” value is reported as “Statistically significant increases in ectopic CLIP”.
Take ANSGIIGDITEEVGGQY [VGV-pB]: in experiment [2], the “percentage of CLIP^+ B cells and level of CLIP per B cell” value was “reduced the frequency of CLIP^+ B cells and the level of CLIP per cell in one individual but not the other”.
As to “SGGGSKMRMATPLLMQALY (Biotin-SGGGSKMRMATPLLMQALY) [MKN1]”, the “cell surface CLIP and CD74 levels” value in the experiment on Raji or Daudi cells was “alters cell surface CLIP and CD74 levels”.
As to `CCOCc1nc2c(N)nc3ccccc3c2n1CC(C)(C)O` [R848, imidazoquinoline resiquimod], the “exogenous CLIP expression” value in the experiment with mouse splenic B cells is on record as “resulted in exogenous CLIP expression on the activated mouse B cells”.
For the compound `O=CC[C@@H](O)[C@H](O)[C@H](O)CO` [2-Deoxyglucose, 2-deoxy-D-glucose], in the experiment on B cell surface CLIP, the “B cell surface CLIP” value is reported as “affects B cell surface CLIP”.
For “polyinosinic:polycytidylic acid [Poly I:C]”, the “exogenous CLIP expression” value with mouse splenic B cells was “resulted in exogenous CLIP expression on the activated mouse B cells”.
As for KALVQNDTLLQVKG [SEQ ID NO 1], the “cell surface bound CLIP” value was “small decreases in cell surface bound CLIP” in experiment [3] (4 hours) and “significant decreases” in experiment [3] (24 hours).
